These results are taken from patent US11046690B2, “Pyridazinones and methods of use thereof” (Goldfinch Bio, Inc., priority 2018, dated 2021).

The experiment deals with T1, TRPC4 (Homo sapiens, UniProt Q9UBN4).
T1 construct: expressed in transfected cells
T1 sequence (Q9UBN4 1-982 isoform Q9UBN4-5): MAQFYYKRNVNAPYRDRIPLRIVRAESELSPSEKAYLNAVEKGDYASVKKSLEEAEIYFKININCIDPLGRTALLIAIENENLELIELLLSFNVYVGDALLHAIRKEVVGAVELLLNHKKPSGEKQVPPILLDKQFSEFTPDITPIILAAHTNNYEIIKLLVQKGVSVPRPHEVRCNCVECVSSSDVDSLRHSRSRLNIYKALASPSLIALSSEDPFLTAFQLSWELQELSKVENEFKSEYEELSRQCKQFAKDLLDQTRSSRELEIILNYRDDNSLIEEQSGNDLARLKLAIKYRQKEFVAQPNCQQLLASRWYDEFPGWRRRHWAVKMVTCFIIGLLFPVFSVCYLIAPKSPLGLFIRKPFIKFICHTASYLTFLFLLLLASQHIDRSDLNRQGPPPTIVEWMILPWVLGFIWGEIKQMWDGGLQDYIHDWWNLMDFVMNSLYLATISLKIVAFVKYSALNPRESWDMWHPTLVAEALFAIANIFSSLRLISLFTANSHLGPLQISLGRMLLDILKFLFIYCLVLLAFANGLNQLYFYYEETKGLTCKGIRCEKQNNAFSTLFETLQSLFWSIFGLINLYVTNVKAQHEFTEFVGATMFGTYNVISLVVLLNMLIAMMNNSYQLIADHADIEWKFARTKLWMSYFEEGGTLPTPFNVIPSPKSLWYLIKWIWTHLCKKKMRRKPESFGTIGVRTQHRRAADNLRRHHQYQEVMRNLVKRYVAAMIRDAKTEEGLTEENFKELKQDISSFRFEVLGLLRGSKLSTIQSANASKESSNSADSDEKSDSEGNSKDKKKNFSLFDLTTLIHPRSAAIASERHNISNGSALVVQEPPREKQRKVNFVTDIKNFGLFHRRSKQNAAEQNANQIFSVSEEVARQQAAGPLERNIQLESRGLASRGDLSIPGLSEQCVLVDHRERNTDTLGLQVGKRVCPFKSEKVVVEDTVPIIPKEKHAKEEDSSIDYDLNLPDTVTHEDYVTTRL
Description: TRPC4 activity assay (FLIPR calcium fluorescence, Englerin A stimulation). The experiment is classed as cell-based. Conditions: HEK-TREx hTRPC4 cells, 100 nM Englerin A stimulation; read-out: TRPC4 (IC50 class). Here is the method: ICLN-1694 cells (HEK-TREx hTRPC4) expressing TRPC4 were generated as follows. Commercially available HekTrex-293 cells were seeded at 0.7×10^6 cells/well in a 1×6-well plate 24 hrs prior to transfection using 2 mL cell growth media containing no antibiotics (1× DMEM/high glucose (Hyclone #SH30022.02); 10%0/fetal bovine serum (Sigma) 2 mM sodium pyruvate, 10 mM HEPES). […] On day 2, 2 μg of plasmid DNA plus 6 μl of Xtreme-GENE HP reagent in Optimem (200 μl total volume) was prepared and incubated for 15 min at room temperature. This plasmid solution was then gently overlayed dropwise onto each well and the plate was gently swirled to mix complex with the media for approximately 30 seconds. Transfected cells were incubated at 37° C. in a 10% C02 incubator for 24 hrs. The transfected cells were harvested and transferred into 2×150 mm dishes containing cell growth media with no antibiotics at 37° C.
The next day selection was initiated to generate a stable pool by adding cell growth media containing 150 μg/mL Hygromycin and 5 μg/mL Blasticidin and cells were allowed to grow. Media with the selection agent was changed every 1-2 days as needed to remove dead cells. After 7 days, the hygromycin concentration was reduced to 75 μg/mL and cells growth was allowed to continue.
Single clones were selected as follows. The stable pool was diluted to 10 cells/mL and seeded (100 μl/well) into 24×96 well plates (˜1 cell/well) and allowed to grow for 7 days in cell growth media. Fresh media (100 μl) was added and the cells allowed to grow for another 1-2 weeks and then stored frozen or used immediately.
10-point dose response curves were generated using the Echo-550 acoustic dispenser. Compound source plates were made by serially diluting compound stocks to create 10 mM, 1 mM, and 0.1 mM solutions in DMSO into Echo-certified LDV plates. The Echo then serially spotted 100% DMSO stock solutions into source dose response plates to generate a 4-fold dilution scheme. 100% DMSO was added to the spotted dose response plates to bring the final volume to 5 μl. […] of the dose response stock plate was then spotted into pre-incubation and stimulation assay plates. 50 μl of pre-incubation buffer and 100 μl of stimulation buffer was then added to the plates resulting in a final assay test concentration range of 30 μM to 0.0001 μM with a final DMSO concentration of 0.3%.
ICLN-1694 cells (HEK-TREx hTRPC4) were plated onto 384 well, black pdl-coated microplates and maintained in cell growth media supplemented with 1 μg/mL tetracycline the day prior to use for experiments. TRPC4 expression was induced by the application of 1 μg/mL tetracycline at the time of plating. […] Cells were incubated at room temperature, protected from light, for 60-90 minutes. After the incubation period, the dye was removed and replaced with 10 μl of EBSS. Cell, pre-incubation and stimulation plates were loaded onto the FLIPR-II and the assay was initiated. The FLIPR measured a 10 second baseline and then added 10 μl of 2X compounds (or controls). Changes in fluorescence were monitored for an additional 5 minutes. After a 5 minute pre-incubation, 20 μl of 2X Englerin A (with 1X compound or controls) was added to the cell plate. The final Englerin A stimulation concentration in the assay was 100 nM. After the Englerin A addition, changes in fluorescence were monitored for an additional 5 minutes.
Compound modulation of TRPC4 calcium response was determined as follows. After the Englerin A, fluorescence was monitored for a 5-minute period. The maximum relative fluorescence response (minus the control response of 1 μM of an internal control compound known to maximally block TRPC4 calcium response, the “REF INHIB” in the formula below) was captured and exported from the FLIPR.
Compound effect is calculated as % inhibition using the following formula:
[formula] wherein “RFU” is the relative fluorescent units.

For the molecule `CC1Cc2c(ncnc2Oc2ccc(F)cc2Cl)CN1c1cn[nH]c(=O)c1Cl` (single isomer, unassigned) [Compound 117], the IC50 fell in the range of 50 to 500 nM.
With `O=c1[nH]ncc(N2CCc3c(ncnc3Oc3ccc(F)cc3Cl)C2)c1Cl` [Compound 104], the IC50 is below 50 nM.
